Test results taken from patent US11091501B2, “Heterocyclic compounds as RSV inhibitors” (Enanta Pharmaceuticals, Inc., priority 2017, dated 2021).

system: Human RSV-A (“Long” strain); experiment: RSV in vitro cytoprotection assay (CPE, ATPlite) in HEp-2 cells; assay type: cell-based; details: human respiratory syncytial virus, 96 h; HEp-2 cells, 4-day incubation, ATPlite readout; read-out: Human RSV-A (“Long” strain) EC50
Outline: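 HEp-2 cells (8,000/well) given 2-fold serial compound dilutions in duplicate, then infected with sucrose-stabilised RSV-A Long stock. After 4 days, cell viability read by ATPlite luminescence, with a parallel uninfected plate for cytotoxicity. EC50 binned A<0.01 μM, B 0.01-0.05 μM, C>0.05 μM.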

EC50 | Structure (SMILES)
10 to 50 nM | O=C(Nc1ccc(C(=O)N2CCc3cc(-c4ccn[nH]4)sc3-c3ccc(F)cc32)cc1)c1cc(F)cnc1N1CC2(CCOCC2)C1 [Example 45]
10 to 50 nM | N#Cc1cnc(N2CC3(CCOCC3)C2)c(C(=O)Nc2ccc(C(=O)N3CCc4cc(C(=O)Nc5c(F)cc(F)cc5Cl)sc4-c4ccc(F)cc43)cc2)c1 [Example 17]
10 to 50 nM | Cc1cc(C(=O)Nc2ccc(C(=O)N3CCc4cc(C(=O)Nc5c(F)cc(F)cc5Cl)sc4-c4ccc(F)cc43)cc2)c(N2CC3(CCOCC3)C2)nn1 [Example 136]
> 50 nM | CCS(=O)(=O)CCN(C)c1ncccc1C(=O)Nc1ccc(C(=O)N2CCc3cc(C(=O)Nc4c(F)cccc4F)sc3-c3ccc(F)cc32)cc1 [Example 57]
10 to 50 nM | Cc1ccc(C(=O)Nc2ccc(C(=O)N3CCc4c(sc(NC(=O)c5ccccc5F)c4F)-c4ccccc43)cc2)c(N2CC3(CCOCC3)C2)n1 [Example 311]
< 10 nM | Cc1cnc(N2CC3(CCOCC3)C2)c(C(=O)Nc2ccc(C(=O)N3CCc4cc(-c5ncc(C)s5)sc4-c4ccc(F)cc43)cc2)c1 [Example 151]
10 to 50 nM | O=C(Nc1c(F)cccc1F)c1cc2c(s1)-c1ccc(F)cc1N(C(=O)c1ccc(NC(=O)c3cccnc3C3CCOCC3)cc1)CC2 [Example 61]
< 10 nM | Cc1cnc(N2CC3(CCOCC3)C2)c(C(=O)Nc2ccc(C(=O)N3CCc4cc(-c5nc(C)c(C)[nH]5)sc4-c4ccc(F)cc43)cc2)c1 [Example 158]
10 to 50 nM | O=C(Nc1c(F)cc(F)cc1Cl)c1cc2c(s1)-c1ccc(F)cc1N(C(=O)c1ccc(NC(=O)c3cc(C(F)(F)F)cnc3N3CCC4(CC3)COC4)cc1)CC2 [Example 30]
< 10 nM | Cc1cnc(N2CC3(CCOCC3)C2)c(C(=O)Nc2ccc(C(=O)N3CCc4cc(-c5nc6ccccc6[nH]5)oc4-c4ccc(F)cc43)cc2)c1 [Example 243]
< 10 nM | Cc1cnc(N2CC3(CCOCC3)C2)c(C(=O)Nc2ccc(C(=O)N3CCc4cc(-c5ccnnc5)sc4-c4ccc(F)cc43)cc2)c1 [Example 189]
< 10 nM | Cc1cnc(N2CC3(CCOCC3)C2)c(C(=O)Nc2ccc(C(=O)N3CCc4cc(C(=O)Nc5c(C)cccc5C)sc4-c4ccc(F)cc43)cc2)c1 [Example 6]
< 10 nM | O=C(Nc1c(F)cccc1F)c1cc2c(o1)-c1ccccc1N(C(=O)c1ccc(NC(=O)c3cc4c(nc3N3CC5(CCOCC5)C3)CCC4)cc1)CC2 [Example 247]
10 to 50 nM | O=C(Nc1c(F)cccc1F)c1cc2c(s1)-c1ccc(F)cc1N(C(=O)c1ccc(NC(=O)c3cccnc3N3CC4CCC(C3)O4)cc1)CC2 [Example 50]
< 10 nM | Cc1cnc(N2CC3(CCOCC3)C2)c(C(=O)Nc2ccc(C(=O)N3CCc4cc(-c5ncco5)sc4-c4ccc(F)cc43)cc2)c1 [Example 169]
< 10 nM | Cc1cnc(N2CC3(CCOCC3)C2)c(C(=O)Nc2ccc(C(=O)N3CCc4cc(NC(=O)c5ncccc5F)sc4-c4ccccc43)cc2)c1 [Example 283]
< 10 nM | Cc1cnc(N2CC3(CCOCC3)C2)c(C(=O)Nc2ccc(C(=O)N3CCc4cc(-c5cccnc5)sc4-c4ccc(F)cc43)cc2)c1 [Example 167]
< 10 nM | Cc1ccc(C(=O)Nc2ccc(C(=O)N3CCc4cc(C(=O)Nc5c(F)cccc5Cl)oc4-c4ccccc43)cc2)c(N2CC3(CCOCC3)C2)n1 [Example 259]
< 10 nM | Cc1cnc(N2CC3(CCOCC3)C2)c(C(=O)Nc2ccc(C(=O)N3CCc4cc(C(=O)Nc5c(C)cccc5F)sc4-c4ccc(F)cc43)cc2)c1 [Example 7]
< 10 nM | O=C(Nc1ccc(C(=O)N2CCc3c(sc(C(=O)Nc4c(F)cccc4F)c3F)-c3ccccc32)cc1)c1cc2c(nc1N1CC3(CCOCC3)C1)CCC2 [Example 233]
< 10 nM | Cc1cnc(N2CC3(CCOCC3)C2)c(C(=O)Nc2ccc(C(=O)N3CCc4cc(C(=O)Nc5nccs5)sc4-c4ccc(F)cc43)cc2)c1 [Example 132]
10 to 50 nM | Cc1cnc(N2CC3(CCOCC3)C2)c(C(=O)Nc2ccc(C(=O)N3CCc4cc(-c5nc(C)cs5)sc4-c4ccc(F)cc43)cc2)c1 [Example 152]
10 to 50 nM | Cc1ccc(C(=O)Nc2ccc(C(=O)N3CCc4cc(-c5nc6cccc(Cl)c6[nH]5)sc4-c4ccc(F)cc43)cc2)c(N2CC3(CCOCC3)C2)n1 [Example 148]
10 to 50 nM | Cc1cnc(N2CC3(CCOCC3)C2)c(C(=O)Nc2ccc(C(=O)N3CCc4c(sc(C(=O)Nc5ncc(F)s5)c4F)-c4ccccc43)cc2)c1 [Example 224]
< 10 nM | Cc1cnc(N2CC3(CCOCC3)C2)c(C(=O)Nc2ccc(C(=O)N3CCc4c(sc(C(=O)Nc5ccccc5F)c4Cl)-c4ccccc43)cc2)c1 [Example 270]
< 10 nM | Cc1cnc(N2CC3(CCOCC3)C2)c(C(=O)Nc2ccc(C(=O)N3CCc4c(sc(C(=O)Nc5c(C)cccc5F)c4Cl)-c4ccccc43)cc2)c1 [Example 268]
10 to 50 nM | Cc1cnc(N2CC3(CCOCC3)C2)c(C(=O)Nc2ccc(C(=O)N3CCc4cc(NC(=O)c5c(C)cccc5C)sc4-c4ccccc43)cc2)c1 [Example 286]
> 50 nM | Cc1cnc(N2CC3(CCOCC3)C2)c(C(=O)Nc2ccc(C(=O)N3CCc4cc(-c5nnn[nH]5)sc4-c4ccc(F)cc43)cc2)c1 [Example 196]
10 to 50 nM | Cc1cnc(N2CC3(CCOCC3)C2)c(C(=O)Nc2ccc(C(=O)N3CCc4cc(-c5ccn[nH]5)sc4-c4ccc(F)cc43)cc2)c1 [Example 46]

Further lines, the compound ahead of its results:

Structure (SMILES) | EC50
Cc1cccc(F)c1NC(=O)c1cc2c(s1)-c1ccc(C(F)(F)F)cc1N(C(=O)c1ccc(NC(=O)c3cccnc3N3CC4(CCOCC4)C3)cc1)CC2 [Example 85] | > 50 nM
Cc1cnc(N2CC3(CCOCC3)C2)c(C(=O)Nc2ccc(C(=O)N3CCc4c(sc(C(=O)Nc5c(F)cccc5C(F)(F)F)c4F)-c4ccccc43)cc2)c1 [Example 200] | < 10 nM
O=C(Nc1ccc(C(=O)N2CCc3nc(-c4nc5ccccc5[nH]4)sc3-c3ccccc32)cc1)c1cccnc1N1CC2(CCOCC2)C1 [Example 107] | 10 to 50 nM
O=C(Nc1c(F)cc(F)cc1F)c1cc2c(s1)-c1cc(F)c(F)cc1N(C(=O)c1ccc(NC(=O)c3cc(F)cnc3N3CC4(CCOCC4)C3)cc1)CC2 [Example 71] | 10 to 50 nM
Cc1cnc(N2CC3(CCOCC3)C2)c(C(=O)Nc2ccc(C(=O)N3CCc4cc(C(=O)Nc5c(F)cc(F)cc5Cl)oc4-c4ccc(F)cc43)cc2)c1 [Example 235] | < 10 nM
Cc1cnc(N2CC3(CCOCC3)C2)c(C(=O)Nc2ccc(C(=O)N3CCc4c(sc(C(=O)Nc5ncccc5F)c4F)-c4ccccc43)cc2)c1 [Example 215] | < 10 nM
O=C(Nc1c(Cl)cccc1Cl)c1cc2c(o1)-c1ccc(F)cc1N(C(=O)c1ccc(NC(=O)c3cc4c(nc3N3CC5(CCOCC5)C3)CCCC4)cc1)CC2 [Example 242] | < 10 nM
O=C(Nc1c(F)cc(F)cc1F)c1cc2c(s1)-c1ccc(F)cc1N(C(=O)c1ccc(NC(=O)c3cc(F)cnc3N3CC4(CCOCC4)C3)cc1)CC2 [Example 4] | > 50 nM
O=C(Nc1c(F)cc(F)cc1Cl)c1cc2c(s1)-c1ccc(F)cc1N(C(=O)c1ccc(NC(=O)c3ccc(-c4cccs4)nc3N3CC4(CCOCC4)C3)cc1)CC2 [Example 27] | 10 to 50 nM
Cc1cccc(C)c1NC(=O)c1cc2c(o1)-c1ccccc1N(C(=O)c1ccc(NC(=O)c3cc4c(nc3N3CC5(CCOCC5)C3)CCC4)cc1)CC2 [Example 252] | < 10 nM
Cc1cnc(N2CC3(CCOCC3)C2)c(C(=O)Nc2ccc(C(=O)N3CCc4cc(-c5ccnn5C)sc4-c4ccc(F)cc43)cc2)c1 [Example 161] | < 10 nM
O=C(Nc1ccc(C(=O)N2CCc3cc(-c4nc5ccccc5[nH]4)sc3-c3ccc(F)cc32)cc1)c1cccnc1N1CC2(CCOCC2)C1 [Example 38] | 10 to 50 nM
Cc1cnc(N2CC3(CCOCC3)C2)c(C(=O)Nc2ccc(C(=O)N3CCc4c(sc(C(=O)Nc5c(F)cccc5F)c4C)-c4ccccc43)cc2)c1 [Example 274] | < 10 nM
O=C(Nc1ccc(C(=O)N2CCc3c(sc(-c4nc5ccccc5[nH]4)c3F)-c3ccccc32)cc1)c1cccnc1N1CC2(CCOCC2)C1 [Example 92] | < 10 nM
CC1(C)CCN(c2ncccc2C(=O)Nc2ccc(C(=O)N3CCc4cc(C(=O)Nc5c(F)cccc5F)sc4-c4ccc(F)cc43)cc2)CCS1(=O)=O [Example 49] | > 50 nM
Cc1cnc(N2CC3(CCOCC3)C2)c(C(=O)Nc2ccc(C(=O)N3CCc4cc(-c5nnc(C)s5)sc4-c4ccc(F)cc43)cc2)c1 [Example 150] | < 10 nM
Cc1ccc(C(=O)Nc2ccc(C(=O)N3CCc4cc(NC(=O)OC5CCCCC5)sc4-c4ccccc43)cc2)c(N2CC3(CCOCC3)C2)n1 [Example 300] | > 50 nM
O=C(Nc1c(F)cccc1Cl)c1cc2c(s1)-c1c(cc(F)c(F)c1F)N(C(=O)c1ccc(NC(=O)c3cccnc3N3CC4(CCOCC4)C3)cc1)CC2 [Example 80] | 10 to 50 nM
O=C(Nc1ccc(C(=O)N2CCc3sc(-c4nc5ccccc5[nH]4)cc3-c3ccccc32)cc1)c1cc2c(nc1N1CC3(CCOCC3)C1)CCC2 [Example 264] | 10 to 50 nM
Cc1ccc(C(=O)Nc2ccc(C(=O)N3CCc4cc(C(=O)Nc5ncccc5F)sc4-c4ccc(F)cc43)cc2)c(N2CC3(CCOCC3)C2)n1 [Example 115] | < 10 nM
Cc1cnc(N2CC3(CCOCC3)C2)c(C(=O)Nc2ccc(C(=O)N3CCc4cc(NC(=O)OCC(F)(F)F)sc4-c4ccccc43)cc2)c1 [Example 295] | < 10 nM
Cc1cnc(N2CC3(CCOCC3)C2)c(C(=O)Nc2ccc(C(=O)N3CCc4cc(-c5ccc[nH]c5=O)sc4-c4ccc(F)cc43)cc2)c1 [Example 182] | < 10 nM
O=C(Nc1c(F)cc(F)cc1Cl)c1cc2c(s1)-c1ccc(F)cc1N(C(=O)c1ccc(NC(=O)c3cc(C(F)F)cnc3N3CC4(CCOCC4)C3)cc1)CC2 [Example 144] | 10 to 50 nM
O=C(Nc1ccc(C(=O)N2CCc3cc(-c4nc5ccccc5[nH]4)oc3-c3ccccc32)cc1)c1cc2c(nc1N1CC3(CCOCC3)C1)CCC2 [Example 260] | < 10 nM
Cc1cnc(N2CC3(CCOCC3)C2)c(C(=O)Nc2ccc(C(=O)N3CCc4cc(C(=O)Nc5c(F)cncc5F)sc4-c4ccc(F)cc43)cc2)c1 [Example 117] | < 10 nM
